Target: T1, human NEP (Homo sapiens, UniProt P08473)
T1 construct: purchased R&D Systems, Minneapolis, Minn; 1182-ZN
Experiment: In vitro enzyme inhibition assay at human NEP (Assay 1)
Assay type: biochemical
Details: recombinant enzyme, fluorogenic peptide substrate, 37° C.
In short: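 Recombinant enzyme preincubated with compound 30 min at 37 °C, then 10 μM Mca-D-Arg-Arg-Leu-Dap-(Dnp)-OH added in 50 mM HEPES pH 7.5, 100 mM NaCl, 0.01% Tween-20, 10 μM ZnSO4; stopped after 20 min with acetic acid. Fluorescence read at 320/405 nm; Ki from nonlinear fit of v=v0/[1+(I/K′)], reported as pKi.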

T1 sequence (P08473 whole entry): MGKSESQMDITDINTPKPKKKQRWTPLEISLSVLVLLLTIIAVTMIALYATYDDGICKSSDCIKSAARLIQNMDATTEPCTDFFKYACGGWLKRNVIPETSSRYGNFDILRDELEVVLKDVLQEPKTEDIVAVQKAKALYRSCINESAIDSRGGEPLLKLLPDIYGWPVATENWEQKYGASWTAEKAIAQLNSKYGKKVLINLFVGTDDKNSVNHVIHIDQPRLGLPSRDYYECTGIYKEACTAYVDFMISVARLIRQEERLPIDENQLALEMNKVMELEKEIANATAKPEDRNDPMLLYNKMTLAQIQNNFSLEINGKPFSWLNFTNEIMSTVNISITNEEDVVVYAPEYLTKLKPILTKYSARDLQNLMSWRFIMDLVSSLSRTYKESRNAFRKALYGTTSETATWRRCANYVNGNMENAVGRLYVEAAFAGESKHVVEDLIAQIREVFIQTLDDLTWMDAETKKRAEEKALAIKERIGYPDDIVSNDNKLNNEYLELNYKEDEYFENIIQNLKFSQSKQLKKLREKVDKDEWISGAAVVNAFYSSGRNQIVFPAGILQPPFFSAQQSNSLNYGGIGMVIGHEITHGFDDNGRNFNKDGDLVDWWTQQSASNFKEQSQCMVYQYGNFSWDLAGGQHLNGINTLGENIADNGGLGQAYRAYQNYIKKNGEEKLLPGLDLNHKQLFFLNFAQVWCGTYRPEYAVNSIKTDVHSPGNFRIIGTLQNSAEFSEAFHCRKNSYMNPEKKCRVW

Compound	Ki [nM]
CCOc1cc(C(=O)NN(Cc2ccc(-c3cc(Cl)ccc3F)cc2)C[C@@H](O)C(=O)O)n[nH]1 [Example 8-57, (R)-3-[N-(5′-Chloro-2′-fluoro-biphenyl-4-ylmethyl)-N′-(5-ethoxy-1H-pyrazole-3-carbonyl)-hydrazino]-2-hydroxy-propionic acid]	1.26 to 10
CCCCc1cc(C(=O)NN(Cc2ccc(-c3cc(Cl)ccc3F)cc2)C[C@@H](O)C(=O)O)[nH]n1 [Example 8-42, (R)-3-[N′-(5-Butyl-2H-pyrazole-3-carbonyl)-N-(5′-chloro-2′-fluoro-biphenyl-4-ylmethyl)-hydrazino]-2-hydroxy-propionic acid]	≤ 1
O=C(NN(Cc1ccc(-c2cccc(F)c2)cc1)C[C@@H](O)C(=O)O)c1cc(O)no1 [Example 5-1, (R)-3-[N-(3′-Fluoro-biphenyl-4-ylmethyl)-N′-(3-hydroxy-isoxazole-5-carbonyl)-hydrazino]-2-hydroxy-propionic acid]	1.26 to 10
O=C(NN(Cc1ccc(-c2cc(O)cc(Cl)c2)cc1)C[C@H](O)C(=O)O)c1cc(O)no1 [Example 8-27, (S)-3-[N-(5′-Chloro-3′-hydroxy-biphenyl-4-ylmethyl)-N′-(3-hydroxy-isoxazole-5-carbonyl)-hydrazino]-2-hydroxy-propionic acid]	≤ 1
O=C(NN(Cc1ccc(-c2cc(Cl)ccc2Cl)cc1)C[C@@H](O)C(=O)O)c1cn(O)nn1 [Example 7A, (R)-3-[N-(2′,5′-Dichlorobiphenyl-4-ylmethyl)-N′-(1-hydroxy-H-[1,2,3]triazole-4-carbonyl)-hydrazino]-2-hydroxypropionic Acid]	≤ 1
COc1ccccc1-c1ccc(CN(C[C@@H](O)C(=O)O)NC(=O)c2nnn[nH]2)cc1 [Example 5-10, (R)-2-Hydroxy-3-[N-(2′-methoxy-biphenyl-4-ylmethyl)-N′-(1H-tetrazole-5-carbonyl)-hydrazino]-propionic acid]	1.26 to 10
O=C(NN(Cc1ccc(-c2ccccc2)cc1F)C[C@@H](O)C(=O)O)c1cc(O)no1 [Example 10-1, (R)-3-[N-(3-Fluoro-biphenyl-4-ylmethyl)-N′-(3-hydroxy-isoxazole-5-carbonyl)-hydrazino]-2-hydroxy-propionic acid]	1.26 to 10
O=C(NN(Cc1ccc(-c2cccc(Cl)c2)cc1)C[C@@H](O)C(=O)O)c1cn(O)nn1 [Example 4-4, (R)-3-[N-(3′-Chlorobiphenyl-4-ylmethyl)-N′-(1-hydroxy-1H-[1,2,3]triazole-4-carbonyl)-hydrazino]-2-hydroxy-propionic acid]	≤ 1
CCCCc1cc(C(=O)NN(Cc2ccc(-c3cc(Cl)ccc3F)cc2)C[C@@H](O)C(=O)O)nn1CC(=O)O [Example 8-55, (R)-3-[N′-(5-Butyl-1-carboxymethyl-1H-pyrazole-3-carbonyl)-N-(5′-chloro-2′-fluoro-biphenyl-4-ylmethyl)-hydrazino]-2-hydroxy-propionic acid]	1.26 to 10
COc1ccccc1-c1cc(C(=O)NN(Cc2ccc(-c3cccc(Cl)c3)cc2)C[C@@H](O)C(=O)O)[nH]n1 [Example 4-20, (R)-3-{N-(3′-Chlorobiphenyl-4-ylmethyl)-N′-[5-(2-methoxy-phenyl)-2H-pyrazole-3-carbonyl]-hydrazino}-2-hydroxy-propionic acid]	1.26 to 10
O=C(NN(Cc1ccc(-c2cc(F)cc(Cl)c2)cc1)C[C@H](O)C(=O)O)c1cc(O)no1 [Example 8-24, (S)-3-[N-(5′-Chloro-3′-fluoro-biphenyl-4-ylmethyl)-N′-(3-hydroxy-isoxazole-5-carbonyl)-hydrazino]-2-hydroxy-propionic acid]	1.26 to 10
O=C(NN(Cc1ccc(-c2ccccc2)cc1)C[C@@H](O)C(=O)O)c1cc(C(=O)N2CC[C@H](O)C2)n[nH]1 [Example 2-12, (R)-3-{N-Biphenyl-4-ylmethyl-N′-[5-((S)-3-hydroxy-pyrrolidine-1-carbonyl)-2H-pyrazole-3-carbonyl]hydrazino}-2-hydroxypropionic acid]	1.26 to 10
O=C(O)c1cc(C(=O)NN(Cc2ccc(-c3ccccc3)cc2)C[C@@H](O)C(=O)O)[nH]n1 [Example 1, 5-[N′-Biphenyl-4-ylmethyl-N′-((R)-2-carboxy-2-hydroxyethyl)hydrazinocarbonl]-1H-pyrazole-3-carboxylic Acid]	≤ 1
O=C(NN(Cc1ccc(-c2cccc(Cl)c2)cc1)C[C@@H](O)C(=O)O)c1cnc(O)s1 [Example 4-40, (R)-3-[N-(3′-Chlorobiphenyl-4-ylmethyl)-N′-(2-hydroxy-thiazole-5-carbonyl)-hydrazino]-2-hydroxy-propionic acid]	1.26 to 10
O=C(NN(Cc1ccc(-c2cc(Cl)ccc2F)cc1)C[C@@H](O)C(=O)O)c1cc(-c2ccccc2Cl)no1 [Example 8-17, (R)-3-{N-(5′-Chloro-2′-fluoro-biphenyl-4-ylmethyl)-N′-[3-(2-chloro-phenyl)-isoxazole-5-carbonyl]-hydrazino}-2-hydroxy-propionic acid]	≤ 1
O=C(NN(Cc1ccc(-c2cc(Cl)ccc2F)cc1)C[C@@H](O)C(=O)O)c1cc(-c2cccc(F)c2)no1 [Example 8-13, (R)-3-{N-(5′-Chloro-2′-fluoro-biphenyl-4-ylmethyl)-N′-[3-(3-fluoro-phenyl)-isoxazole-5-carbonyl]-hydrazino}-2-hydroxy-propionic acid]	≤ 1
COc1cc(C(=O)NN(Cc2ccc(-c3cc(Cl)ccc3F)cc2)C[C@@H](O)C(=O)O)on1 [Example 8-9, (R)-3-[N-(5′-Chloro-2′-fluoro-biphenyl-4-ylmethyl)-N′-(3-methoxy-isoxazole-5-carbonyl)-hydrazino]-2-hydroxy-propionic acid]	≤ 1
O=C(NN(Cc1ccc(-c2cc(Cl)ccc2F)cc1)C[C@@H](O)C(=O)O)c1cnc(O)s1 [Example 8-83, (R)-3-[N-(5′-Chloro-2′-fluoro-biphenyl-4-ylmethyl)-N′-(2-hydroxy-thiazole-5-carbonyl)-hydrazino]-2-hydroxy-propionic acid]	≤ 1
O=C(NN(Cc1ccc(-c2cccc(Cl)c2)cc1)C[C@@H](O)C(=O)O)c1nc(O)n[nH]1 [Example 4-2, (R)-3-[N-(3′-Chlorobiphenyl-4-ylmethyl)-N′-(5-hydroxy-2H-[1,2,4]triazole-3-carbonyl)-hydrazino]-2-hydroxy-propionic acid]	1.26 to 10
O=C(NN(Cc1ccc(-c2cccc(Cl)c2)cc1)C[C@@H](O)C(=O)O)c1cc(-c2cnccn2)n[nH]1 [Example 4-24, (R)-3-[N-(3′-Chlorobiphenyl-4-ylmethyl)-N′-(5-pyrazin-2-yl-2H-pyrazole-3-carbonyl)-hydrazino]-2-hydroxy-propionic acid]	1.26 to 10
O=C(NN(Cc1ccc(-c2cc(Cl)ccc2F)cc1)C[C@@H](O)C(=O)O)c1n[nH]c(Cl)n1 [Example 8-82, (R)-3-[N-(5′-Chloro-2′-fluoro-biphenyl-4-ylmethyl)-N′-(5-chloro-1H-[1,2,4]triazole-3-carbonyl)-hydrazino]-2-hydroxy-propionic acid]	≤ 1
O=C(NN(Cc1ccc(-c2cc(Cl)ccc2F)cc1)C[C@@H](O)C(=O)O)c1cc(F)c2nn[nH]c2c1 [Example 8-73, (R)-3-[N-(5′-Chloro-2′-fluoro-biphenyl-4-ylmethyl)-N′-(7-fluoro-3H-benzotriazole-5-carbonyl)-hydrazino]-2-hydroxy-propionic acid]	≤ 1
O=C(NN(Cc1ccc(-c2cc(Cl)ccc2F)cc1)C[C@@H](O)C(=O)O)c1nn(-c2cccc(Cl)c2)c(=O)[nH]1 [Example 8-67, (R)-3-{N-(5′-Chloro-2′-fluoro-biphenyl-4-ylmethyl)-N′-[1-(3-chloro-phenyl)-5-oxo-4,5-dihydro-1H-[1,2,4]triazole-3-carbonyl]-hydrazino}-2-hydroxy-propionic acid]	≤ 1
O=C(NCCO)c1cc(C(=O)NN(Cc2ccc(-c3ccccc3)cc2)C[C@@H](O)C(=O)O)[nH]n1 [Example 2-2, (R)-3-{N-Biphenyl-4-ylmethyl-N′-[5-(2-hydroxyethylcarbamoyl)-2H-pyrazole-3-carbonyl]hydrazino}-2-hydroxypropionic acid]	1.26 to 10
O=C(NN(Cc1ccc(-c2cc(Cl)ccc2F)cc1)C[C@@H](O)C(=O)O)c1nn(-c2ccccc2Cl)c(=O)[nH]1 [Example 8-66, (R)-3-{N-(5′-Chloro-2′-fluoro-biphenyl-4-ylmethyl)-N′-[1-(2-chloro-phenyl)-5-oxo-4,5-dihydro-1H-[1,2,4]triazole-3-carbonyl]-hydrazino}-2-hydroxy-propionic acid]	1.26 to 10
O=C(NN(Cc1ccc(-c2cccc(Cl)c2)cc1)C[C@@H](O)C(=O)O)c1c[nH]c(=O)o1 [Example 4-39, (R)-3-[N-(3′-Chlorobiphenyl-4-ylmethyl)-N′-(2-oxo-2,3-dihydro-oxazole-5-carbonyl)-hydrazino]-2-hydroxy-propionic acid]	1.26 to 10
O=C(NN(Cc1ccc(-c2cc(Cl)ccc2F)cc1)C[C@@H](O)C(=O)O)c1cc(-c2cc(Cl)ccc2Cl)n[nH]1 [Example 8-41, (R)-3-{N-(5′-Chloro-2′-fluoro-biphenyl-4-ylmethyl)-N′-[5-(2,5-dichloro-phenyl)-2H-pyrazole-3-carbonyl]-hydrazino}-2-hydroxy-propionic acid]	≤ 1
O=C(NN(Cc1ccc(-c2cccc(Cl)c2)cc1F)C[C@@H](O)C(=O)O)c1nnn[nH]1 [Example 10-8, (R)-3-[N-(3′-Chloro-3-fluoro-biphenyl-4-ylmethyl)-N′-(1H-tetrazole-5-carbonyl)-hydrazino]-2-hydroxy-propionic acid]	1.26 to 10
O=C(NN(Cc1ccc(-c2ccccc2)cc1)C[C@H](O)C(=O)O)c1cc(Cl)c2[nH]nnc2c1 [Example 2-25, (S)-3-[N-Biphenyl-4-ylmethyl-N′-(7-chloro-1H-benzotriazole-5-carbonyl)-hydrazino]-2-hydroxypropionic acid]	126 to 1000

From US9873696B2, “Neprilysin inhibitors” (THERAVANCE BIOPHARMA R&D IP, LLC, priority 2010, dated 2018)
